Key:
AJK2(h) = AJK2(h) (Homo sapiens, UniProt O60674); experiment: Kinase assay, AJK2(h); format: biochemical
FGFR2(N549H)(h) = FGFR2(N549H)(h) (Homo sapiens, UniProt P21802, N549H); experiment: Kinase assay, FGFR2(N549H)(h); format: biochemical
hERG = hERG (Homo sapiens, UniProt Q12809); experiment: Cardiovascular toxicity, hERG
Source text: (§1) Table 9 discloses toxicity data for compound 19 from various toxicity tests well known to those of ordinary skill.

Met(h) = Met(h) (Homo sapiens, UniProt P08581); experiment: Kinase assay, Met(h); format: biochemical
CYP450 2D6 = CYP450 2D6 (Homo sapiens, UniProt P10635); experiment: CYP450 inhibition, 2D6; format: in vitro ADME
Sequence of CYP450 2D6 (P10635 whole entry): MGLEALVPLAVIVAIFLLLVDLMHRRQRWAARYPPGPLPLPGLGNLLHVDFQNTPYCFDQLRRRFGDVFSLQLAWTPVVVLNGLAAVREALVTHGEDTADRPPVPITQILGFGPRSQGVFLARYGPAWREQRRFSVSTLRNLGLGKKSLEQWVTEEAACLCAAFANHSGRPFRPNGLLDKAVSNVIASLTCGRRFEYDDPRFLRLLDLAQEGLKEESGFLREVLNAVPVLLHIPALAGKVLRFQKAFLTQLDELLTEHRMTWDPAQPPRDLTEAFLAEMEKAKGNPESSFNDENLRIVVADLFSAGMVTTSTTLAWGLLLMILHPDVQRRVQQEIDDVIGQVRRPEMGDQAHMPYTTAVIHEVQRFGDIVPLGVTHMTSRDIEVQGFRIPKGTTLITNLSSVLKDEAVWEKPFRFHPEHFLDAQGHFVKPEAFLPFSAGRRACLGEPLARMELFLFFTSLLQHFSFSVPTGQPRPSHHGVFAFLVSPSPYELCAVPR
Source text: as §1

Ret(h) = Ret(h) (Homo sapiens, UniProt P07949); experiment: Kinase assay, Ret(h); format: biochemical
Sequence of Ret(h) (P07949 29-1114): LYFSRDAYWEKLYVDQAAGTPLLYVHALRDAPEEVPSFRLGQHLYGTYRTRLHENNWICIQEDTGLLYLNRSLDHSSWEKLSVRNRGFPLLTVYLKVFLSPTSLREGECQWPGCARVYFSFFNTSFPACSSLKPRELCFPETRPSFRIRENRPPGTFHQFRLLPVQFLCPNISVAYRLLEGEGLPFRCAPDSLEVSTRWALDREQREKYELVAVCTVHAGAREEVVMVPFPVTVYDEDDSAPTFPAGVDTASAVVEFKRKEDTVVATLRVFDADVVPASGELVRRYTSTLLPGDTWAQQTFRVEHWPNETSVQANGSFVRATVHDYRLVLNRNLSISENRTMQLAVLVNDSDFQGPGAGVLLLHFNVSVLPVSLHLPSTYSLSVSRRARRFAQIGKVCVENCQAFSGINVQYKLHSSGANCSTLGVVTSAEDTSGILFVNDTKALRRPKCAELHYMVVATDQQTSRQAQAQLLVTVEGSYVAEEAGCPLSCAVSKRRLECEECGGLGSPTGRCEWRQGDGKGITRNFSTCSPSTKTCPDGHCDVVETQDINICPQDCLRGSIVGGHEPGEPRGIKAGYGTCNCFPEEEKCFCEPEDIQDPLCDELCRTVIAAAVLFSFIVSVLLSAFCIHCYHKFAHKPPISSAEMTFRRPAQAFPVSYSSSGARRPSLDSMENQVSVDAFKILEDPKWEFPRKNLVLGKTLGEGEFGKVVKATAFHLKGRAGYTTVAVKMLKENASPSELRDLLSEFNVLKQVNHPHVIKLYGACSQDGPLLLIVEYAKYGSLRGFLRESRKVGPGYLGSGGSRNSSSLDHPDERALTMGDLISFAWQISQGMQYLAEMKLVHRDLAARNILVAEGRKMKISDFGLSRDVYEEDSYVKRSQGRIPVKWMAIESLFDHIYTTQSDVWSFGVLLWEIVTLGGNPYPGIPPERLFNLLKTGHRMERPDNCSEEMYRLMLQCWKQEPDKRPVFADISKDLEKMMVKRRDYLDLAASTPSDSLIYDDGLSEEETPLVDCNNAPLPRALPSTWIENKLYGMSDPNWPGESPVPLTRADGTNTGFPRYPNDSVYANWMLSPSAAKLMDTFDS

SNU16 = experiment: Inhibition of proliferation (CellTiterblue, 72 hr), SNU16; format: cell-based; conditions: Homo sapiens, SNU-16, 72 h
Protocol: A number of studies were performed to analyze the consequences of tyrosine kinase inhibition in cell lines. To do this, 1000 cells are seeded in 27 μl/well in 384-well microplates, which are then placed in a humidified CO2 incubator at 37° C. overnight. The next day, 3 μl/well of 10× concentrated drug is added and the plates are returned to the incubator for 72 hr. After 72 hr incubation, plates are removed and 6 μl/well CellTiterblue (Promega) viability reagent is added. Plates are returned to the incubator for 3 hrs, after which fluorescence measurements are read on the Victor X3 plate reader (Perkin Elmer). Data are analyzed using Excel (Microsoft), and GI50 values are determined using Prism (Graphpad).

FGFR1 = biological target: T1, FGFR1 (Homo sapiens, UniProt P11362); experiment: BaF3 cells engineered for expression of FGFR1; format: cell-based; conditions: read-out: IC5o(nM) FGFR1
T1 construct: expressed in transfected cells; host or cells: BaF3
Source text: (§2) In FIG. 1 these kinases are from the fibroblast growth factor receptor class of kinases (FGFR1-FGFR4). Compound 19 kinase inhibitory activity FGFR1-FGFR4 are also depicted in Table 5.

Axl(h) = Axl(h) (Homo sapiens, UniProt P30530); experiment: Kinase assay, Axl(h); format: biochemical
Lck(h) = Lck(h) (Homo sapiens, UniProt P06239); experiment: Kinase assay, Lck(h); format: biochemical
Sequence of Lck(h) (P06239 whole entry): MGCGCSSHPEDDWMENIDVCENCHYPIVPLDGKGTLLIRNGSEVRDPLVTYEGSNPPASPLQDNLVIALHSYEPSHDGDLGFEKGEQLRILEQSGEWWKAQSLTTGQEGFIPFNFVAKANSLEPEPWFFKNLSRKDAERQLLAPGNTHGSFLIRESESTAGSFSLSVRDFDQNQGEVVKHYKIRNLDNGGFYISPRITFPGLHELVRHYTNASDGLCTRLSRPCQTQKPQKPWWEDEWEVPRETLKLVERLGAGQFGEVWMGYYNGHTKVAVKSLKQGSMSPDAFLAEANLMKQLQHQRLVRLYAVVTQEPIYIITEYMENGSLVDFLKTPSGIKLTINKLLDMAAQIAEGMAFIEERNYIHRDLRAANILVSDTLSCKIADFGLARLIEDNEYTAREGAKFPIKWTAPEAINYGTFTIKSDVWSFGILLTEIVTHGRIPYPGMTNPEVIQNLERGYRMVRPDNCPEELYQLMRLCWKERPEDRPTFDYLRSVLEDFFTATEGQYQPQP

[1] = Metabolic stability, rat liver microsomes; format: in vitro ADME
ABL(h) = ABL(h) (Homo sapiens, UniProt P00519); experiment: Kinase assay, ABL(h); format: biochemical
FGFR4 = biological target: T2, FGFR4 (Homo sapiens, UniProt P22455); experiment: BaF3 cells engineered for expression of FGFR4; format: cell-based; conditions: read-out: IC5o(nM) FGFR4
T2 construct: expressed in transfected cells; host or cells: BaF3
Source text: as §2

[2] = Metabolic stability, human liver microsomes; format: in vitro ADME
IGF-1R(h) = IGF-1R(h) (Homo sapiens, UniProt P08069); experiment: Kinase assay, IGF-1R(h); format: biochemical
Sequence of IGF-1R(h) (P08069 31-1367): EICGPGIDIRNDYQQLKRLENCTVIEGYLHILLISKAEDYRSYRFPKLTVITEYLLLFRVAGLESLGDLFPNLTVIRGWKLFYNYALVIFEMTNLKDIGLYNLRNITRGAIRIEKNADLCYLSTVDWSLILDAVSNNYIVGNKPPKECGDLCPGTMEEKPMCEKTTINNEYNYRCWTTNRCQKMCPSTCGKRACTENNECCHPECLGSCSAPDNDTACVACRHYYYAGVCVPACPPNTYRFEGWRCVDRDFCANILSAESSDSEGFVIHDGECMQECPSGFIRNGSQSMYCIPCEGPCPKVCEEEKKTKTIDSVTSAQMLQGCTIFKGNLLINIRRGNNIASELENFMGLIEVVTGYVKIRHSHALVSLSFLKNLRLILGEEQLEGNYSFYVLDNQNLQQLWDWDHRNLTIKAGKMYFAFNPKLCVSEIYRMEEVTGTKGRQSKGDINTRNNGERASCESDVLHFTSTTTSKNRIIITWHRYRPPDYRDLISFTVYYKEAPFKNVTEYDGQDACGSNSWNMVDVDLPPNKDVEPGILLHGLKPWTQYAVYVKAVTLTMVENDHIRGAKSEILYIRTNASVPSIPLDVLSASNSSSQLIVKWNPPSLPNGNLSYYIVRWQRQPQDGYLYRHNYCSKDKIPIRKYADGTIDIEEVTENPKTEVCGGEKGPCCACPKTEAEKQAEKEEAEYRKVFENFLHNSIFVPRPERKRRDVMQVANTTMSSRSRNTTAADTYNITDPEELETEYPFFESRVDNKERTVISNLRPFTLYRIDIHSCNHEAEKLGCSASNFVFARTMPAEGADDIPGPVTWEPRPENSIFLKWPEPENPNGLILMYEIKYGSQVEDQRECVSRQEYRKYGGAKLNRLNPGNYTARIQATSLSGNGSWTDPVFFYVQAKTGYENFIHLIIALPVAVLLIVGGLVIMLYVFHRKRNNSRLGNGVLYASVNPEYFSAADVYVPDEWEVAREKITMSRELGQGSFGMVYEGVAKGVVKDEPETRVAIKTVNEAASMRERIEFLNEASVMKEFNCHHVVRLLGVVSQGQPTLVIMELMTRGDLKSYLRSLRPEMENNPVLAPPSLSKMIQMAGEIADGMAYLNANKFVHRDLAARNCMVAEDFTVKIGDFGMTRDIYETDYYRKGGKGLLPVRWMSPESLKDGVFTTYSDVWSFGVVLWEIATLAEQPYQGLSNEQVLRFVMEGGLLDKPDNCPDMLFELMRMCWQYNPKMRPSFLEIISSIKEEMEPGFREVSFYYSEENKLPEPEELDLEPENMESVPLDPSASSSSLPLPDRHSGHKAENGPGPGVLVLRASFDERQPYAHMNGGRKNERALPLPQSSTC

FGFR3(h) = FGFR3(h) (Homo sapiens, UniProt P22607); experiment: Kinase assay, FGFR3(h); format: biochemical
Sequence of FGFR3(h) (P22607 23-806): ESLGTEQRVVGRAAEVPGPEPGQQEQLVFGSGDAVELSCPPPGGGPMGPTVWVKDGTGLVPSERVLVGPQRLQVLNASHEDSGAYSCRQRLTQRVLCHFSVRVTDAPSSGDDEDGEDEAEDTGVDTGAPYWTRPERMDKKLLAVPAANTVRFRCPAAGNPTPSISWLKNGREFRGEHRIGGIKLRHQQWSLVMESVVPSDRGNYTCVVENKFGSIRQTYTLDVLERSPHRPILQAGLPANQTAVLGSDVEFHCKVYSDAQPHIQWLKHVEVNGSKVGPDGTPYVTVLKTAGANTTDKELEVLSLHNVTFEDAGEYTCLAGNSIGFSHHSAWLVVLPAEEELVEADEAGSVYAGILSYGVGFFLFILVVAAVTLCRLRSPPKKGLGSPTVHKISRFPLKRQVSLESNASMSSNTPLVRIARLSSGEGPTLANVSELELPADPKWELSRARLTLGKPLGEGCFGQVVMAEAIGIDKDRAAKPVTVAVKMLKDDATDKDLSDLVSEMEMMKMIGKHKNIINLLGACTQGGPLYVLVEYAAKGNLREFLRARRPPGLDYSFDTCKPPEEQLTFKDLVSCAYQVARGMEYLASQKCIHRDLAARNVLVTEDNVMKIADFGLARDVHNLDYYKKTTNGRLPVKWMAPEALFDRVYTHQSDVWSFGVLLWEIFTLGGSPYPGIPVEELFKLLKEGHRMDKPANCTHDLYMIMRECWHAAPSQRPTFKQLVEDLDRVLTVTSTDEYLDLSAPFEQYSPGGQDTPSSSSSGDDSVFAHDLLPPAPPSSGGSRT

FGFR2 = biological target: T3, FGFR2 (Homo sapiens, UniProt P21802); experiment: BaF3 cells engineered for expression of FGFR2; format: cell-based; conditions: read-out: IC5o(nM) FGFR2
T3 construct: expressed in transfected cells; host or cells: BaF3
T3 sequence (P21802 22-821, species assumed): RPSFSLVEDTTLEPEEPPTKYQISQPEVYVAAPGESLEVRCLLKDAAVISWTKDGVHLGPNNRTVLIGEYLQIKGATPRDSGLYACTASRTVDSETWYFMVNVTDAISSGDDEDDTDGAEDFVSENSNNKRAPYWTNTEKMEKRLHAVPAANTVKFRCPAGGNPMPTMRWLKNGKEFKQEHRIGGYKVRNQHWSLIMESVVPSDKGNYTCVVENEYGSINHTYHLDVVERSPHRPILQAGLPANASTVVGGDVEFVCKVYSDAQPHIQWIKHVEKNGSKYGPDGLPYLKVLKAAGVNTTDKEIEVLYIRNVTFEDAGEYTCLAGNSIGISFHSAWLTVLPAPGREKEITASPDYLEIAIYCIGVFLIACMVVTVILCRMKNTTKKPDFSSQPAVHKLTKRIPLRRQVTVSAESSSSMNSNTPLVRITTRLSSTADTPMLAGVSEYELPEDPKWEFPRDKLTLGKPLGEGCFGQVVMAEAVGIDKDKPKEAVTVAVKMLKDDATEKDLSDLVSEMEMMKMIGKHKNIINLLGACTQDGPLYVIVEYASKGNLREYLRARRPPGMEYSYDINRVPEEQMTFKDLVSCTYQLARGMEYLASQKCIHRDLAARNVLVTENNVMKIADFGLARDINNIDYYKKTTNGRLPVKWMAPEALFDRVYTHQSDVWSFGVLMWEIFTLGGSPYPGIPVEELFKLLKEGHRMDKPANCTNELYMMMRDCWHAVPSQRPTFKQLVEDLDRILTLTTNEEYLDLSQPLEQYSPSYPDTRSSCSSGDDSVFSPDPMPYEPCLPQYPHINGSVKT
Source text: as §2

nude mouse model of AML = experiment: Nude mouse model of AML (FIG. 2, FIG. 3); format: in vivo
[3] = Cellular toxicity, primary human hepatocyte; format: cell-based; conditions: primary hepatocytes
Source text: as §1

TG1a Human AML Xenograft = experiment: Antitumor efficacy on TG1a human AML xenograft; format: in vivo, mouse
Protocol: In this Example the antitumor activity of compounds 14, 17, 19, 45, and 48 of the current invention are tested using an art-recognized xenograft model of AML. (“T/C” refers to the ratio of the tumor's size in treated animals versus the tumor size in control untreated animals. “BWC” refers to “body weight change”).

Tie2(h) = Tie2(h) (Homo sapiens, UniProt Q02763); experiment: Kinase assay, Tie2(h); format: biochemical

Sequence of FGFR2(N549H)(h) (P21802 22-821 N549H): as the sequence (P21802 22-821, species assumed) above, with N528H counted along it

Compound Cc1cc2c(F)c(Oc3ncnc(Nc4ccc(N5C[C@@H](C)N[C@@H](C)C5)cc4)c3C#N)cc(F)c2[nH]1 [Compound 19] has an IC50 (AJK2(h)) greater than 1000 nM, an IC50 (FGFR2(N549H)(h)) of 7 nM and an IC50 (hERG) greater than 30000 nM. The IC50 (Met(h)) was greater than 1000 nM, the IC50 (CYP450 2D6) was greater than 100000 nM and the IC50 (Ret(h)) was greater than 1000 nM. It also gave a GI50 (SNU16) of 12 nM, an IC50 (FGFR1) of 11.4 nM and an IC50 (Axl(h)) greater than 1000 nM. It also gave an IC50 (Lck(h)) greater than 1000 nM, a half-life [1] greater than 1 h and an IC50 (ABL(h)) greater than 1000 nM. It also gave an IC50 (FGFR4) of 92.1 nM, a half-life [2] greater than 1 h and an IC50 (IGF-1R(h)) greater than 1000 nM. For the same compound, the IC50 (FGFR3(h)) was 12 nM, the IC50 (FGFR2) was 17.6 nM and the “Antitumor activity (tumor cells expansion), FIG. 2” value (nude mouse model of AML; both dosages tested) was “near complete suppression of the tumor cells expansion”. The “Animal weight as surrogate marker for toxicity, FIG. 3” value (nude mouse model of AML; vs control) was “no difference between the control and compound 19 treated animals”, the CC50 [3] was 20000 nM and the “BWC (%)” value (TG1a Human AML Xenograft; 5 mg/kg, Qdx10, IP) was −4.1%. The “T/C (%) (day14)” value (TG1a Human AML Xenograft; 5 mg/kg, Qdx10, IP) was −69.7%, the “BWC (%)” value (TG1a Human AML Xenograft; 10 mg/kg, Qdx10, IP) was −6.3% and the “T/C (%) (day14)” value (TG1a Human AML Xenograft; 10 mg/kg, Qdx10, IP) was −83.7%. The “BWC (%) (d7)” value (TG1a Human AML Xenograft; 20 mg/kg, Qdx10, IP, d7) was −26.2%, the “T/C (%) (day7)” value (TG1a Human AML Xenograft; 20 mg/kg, Qdx10, IP, day7) was −68.7% and the “Weight loss in dose-response study (FIGS. 4 and 5)” value (TG1a Human AML Xenograft; highest dose, 20 mg/kg) was “significant weight loss”. It also gave an IC50 (Tie2(h)) greater than 1000 nM.

From patent publication US20180215734A1, “PYRIMIDINE DERIVATIVES AS KINASE INHIBITORS AND THEIR THERAPEUTICAL APPLICATIONS” (NantBioScience, Inc., priority 2016, published 2018)
